Experimental data reported in patent US7323468B2, “Pyridopyrazines and the use thereof as kinase inhibitors” (AEterna Zentaris GmbH, priority 2003, dated 2008).

Assays:
[1] = test system: Raf-Mek-Erk cascade (GST-c-Raf-DD, GST-Mek1, His-Erk2); test: Raf-Mek-Erk ELISA (cell-free reconstituted cascade, Erk phosphorylation); assay type: biochemical, human; details: inhibition of Erk phosphorylation, 1 mM ATP, 10 concentrations 31.6 pM-100 μM
Protocol: The inhibitory effect on the following human serine/threonine and tyrosine kinases of the compounds of the invention was tested in conventional kinase assays: PKB/Akt1, c-Raf, B-Raf, Mek, PDGFRbeta, Flt-3, c-Kit, c-Ab1, KDR, FGFR1 and IGF1R. Both the full-length kinases and truncated fragments—but at least the cytoplasmic, constitutively active kinase domains—were employed. The kinases were prepared as recombinant fusion proteins with GST (glutathion S-transferase) or HIS Tag in Sf9 cell culture. Depending on the substrate type, the various kinase reactions were carried out in sandwich ELISA formates or by means of a simple substrate adsorption assay on 96-well Flashplates (Perkin Elmer).
The testing on substances on the Raf-Mek-Erk cascade is described in detail below. Selected test results for the Raf and Mek inhibitors are then listed.
Procedure: Raf-Mek-Erk ELISA
Potential inhibitors were firstly investigated at a concentration of 20 μg/ml in initial single-dose determinations on 96-well microtiter plates (MTPs). Substances with >70% inhibition were employed for dose-response studies.
Reconstitution of the Raf-Mek-Erk cascade was quantified with the aid of a cell-free ELISA.
A typical kinase assay was carried out in a final volume of 50 μl with in each case 20-150 ng of Raf, Mek, Erk kinase protein, 1 mM ATP, 10 mM MgCl2, 150 mM NaCl, 25 mM beta-glycerophosphate, 25 mM Hepes pH 7.5. Before the kinase reaction, the test substances were each preincubated singly with each of the three kinase proteins at room temperature for 30 minutes. For the kinase reaction, the kinases preincubated with test substance were combined and incubated at 26° C. for 30 minutes. The reaction was stopped by a final concentration of 2% SDS and 10 minutes at 50° C. in a heating block.
For the immunodetection, the reaction mixtures were transferred to 96-well MTPs coated with anti-Erk Ab(K-23, Santa Cruz Biotechnology, incubated at room temperature for 60 minutes and washed 3× with TBST. Anti-phospho-Erk Ab (#9106, New England Biolabs) 1:500 in 50 μl of TBST/1% BSA, was added and incubated at 4° C. overnight. After the MTPs had been washed 3× with TBST, secondary anti-mouse IgG^POD conjugate (#NA931, Pharmacia) 1:2500 was added, incubated at room temperature for 1 h and again washed 3× with TBST. For colorimetric detection of the kinase reaction, 50 μl of OPD (o-phenyldiamine dihydrochloride) chromogen buffer were pipetted into each of the wells and incubated at 37° C. for 30 minutes. The colour reaction was then determined in an ELISA reader at 492 nm.
The experimental determination of dose-response plots took place using the same experimental design with 10 semilogarithmically graded concentrations from 31.6 pM-100 μM. The IC50 values were calculated in GraphPadPrism.

Row | SMILES | melting point | IC50 [1] [µM]
1 | C=C(C)CNC(=S)Nc1ccc2ncc(-c3ccc4ccccc4c3)nc2n1 [Example 6, 1-(2-Methylallyl)-3-(3-naphthalen-2-ylpyrido[2,3-b]pyrazin-6-yl)thiourea] | 239 to 240 °C (dec.) | 
2 | O=[N+]([O-])c1ccc(NC(=S)Nc2ccc3ncc(-c4ccc5ccccc5c4)nc3n2)cc1 [Example 8, 1-(3-Naphthalen-2-ylpyrido[2,3-b]pyrazin-6-yl)-3-(4-nitrophenyl)thiourea] |  | > 100
3 | COc1ccc(-c2cnc3ccc(NC(=S)Nc4ccc([N+](=O)[O-])cc4)nc3n2)cc1 [Example 9, 1-[3-(4-Methoxyphenyl)pyrido[2,3-b]pyrazin-6-yl]-3-(4-nitrophenyl)thiourea] |  | > 100

The next lines start with the values.

Row | melting point | IC50 [1] [µM] | SMILES
4 |  | > 100 | CC(C)(C)NC(=S)Nc1ccc2ncc(-c3ccccc3)nc2n1 [Example 10, 1-tert-Butyl-3-(3-phenylpyrido[2,3-b]pyrazin-6-yl)thiourea]
5 |  | > 100 | S=C(NCc1ccccc1)Nc1ccc2ncc(-c3ccccc3)nc2n1 [Example 13, 1-Benzyl-3-(3-phenylpyrido[2,3-b]pyrazin-6-yl)thiourea]
6 |  | > 100 | Cc1ccc(NC(=O)Nc2ccc3ncc(-c4ccccc4)nc3n2)cc1 [Example 15, 1-(3-Phenylpyrido[2,3-b]pyrazin-6-yl)-3-p-tolylurea]
7 |  | > 100 | O=C(Nc1ccc(Cl)c(C(F)(F)F)c1)Nc1ccc2ncc(-c3ccccc3)nc2n1 [Example 16, 1-(4-Chloro-3-trifluoromethylphenyl)-3-(3-phenylpyrido[2,3-b]pyrazin-6-yl)urea]
